Experimental findings from patent US20230184743A1, “SCREENING METHODS TO IDENTIFY SMALL MOLECULE COMPOUNDS THAT PROMOTE OR INHIBIT THE GROWTH OF CIRCULATING TUMOR CELLS, AND USES THEREOF” (University of Southern California, priority 2020, published 2023) are described below.

What all share (assay type): cell-based, human
The subject of experiment [1] is CTC lines (BRx42, BRx50 and BRx68) spiked into healthy donors' blood. Description: Spike-in experiment: growth of CTCs isolated from spiked healthy donors' blood. Particulars: RosetteSep isolated, cultured 20 days. As to the method: Spike-in experiment. Healthy volunteers' blood samples were collected. GFP-positive CTC lines (50 cells/mL) were spiked into the blood samples from healthy volunteers, and RosetteSep™ CTC Enrichment Cocktail Containing […] was used to enrich CTCs from spiked-in samples. Isolated CTCs were cultured in GravityTRAP™ ULA Plate 96 wells. Each patient CTC cell line was processed by 2 different researchers.
Validation on spiked-in CTCs. To mimic the CTC isolation procedure, spiked-in experiments were performed with 3 CTC lines (BRx42, BRx50 and BRx68) into healthy donors' blood. The RosettSep CTC isolation method was used to isolate the spiked CTCs, and separated isolated CTCs equally into wells with control media or with NAC or NAC plus P1C2. […] This confirmed the effects of these compounds on expanding CTCs that have been processed through an isolation procedure. NAC single cell clones form tumors with similar kinetics as controls. It was noticed that the most critical phase is the initial expansion from single CTCs. […] Therefore, treatment of these compounds was stopped at 24 days, and then prolonged the culture to generate several single cell clones. To evaluate the tumorigenicity of the single cell clones, GFP-Luciferase tagged BRx68 single clones generated with NAC treatment or control clones were injected into the mammary fat pats of female NSG mice.

In experiment [2] the test system is Glutathione (GSH) in BRx68 cells. Description: Glutathione measurement. Conditions: 300 μmol/L NAC. As for the experimental part:
Glutathione measurement. A total of 1×10^6 BRx68 cells were cultured with or without 300 μmol/L NAC for 6 or 13 days. At the end of incubation periods, cells were washed in ice cold PBS, lysed in 5% 5-sulfo-salicylic acid dehydrate by vortexing and repeating cycles of freeze-thaw, then centrifuged at 14,000 rpm for 10 minutes and supernatant was transferred to clean tubes. Glutathione (GSH) was measured using a GSH Colorimetric Detection Kit (Invitrogen) following the manufacturer's instructions.

In experiment [3] the test system is single CTCs from a patient with breast cancer. The experiment is described as follows: Culture of freshly isolated single CTCs from patients with breast cancer in NAC containing media. Conditions: clones dying after 2 weeks in regular media. As for the experimental part:
Patient samples. Ten milliliters of blood was collected from each of a total of 12 patients with breast cancer (stage IV). All experiments were performed following the ethical principles. Informed consents were signed by all patients and/or their legal guardian/s.
Isolation of single CTCs. Single CTCs were detected and retrieved using the negative selection protocol of PIC&RUN assay. Briefly, 7.5 mL of blood was added to each AccuCyte Separation Tube (RareCyte) and tubes were centrifuged twice in a special device to collect buffy coats in 1 mL of CTC media. Buffy coats were stained with a cocktail of immune cell markers (IM) antibodies (CD45, CD14, and CD16) and Cell-Tracker green for 30 min at 37° C. Stained buffy coats were seeded on polyhema coated cyteslides and scanned semi-automatically using RareCyte fluorescence. When a CTC was detected, the Rarecyte ceramic tip needle was operated semi-automatically to pick up the cell of interest in a draw volume of 50 nL to 0.5 μL, and deposit it in a PCR tube contains 50 μL of media. PCR tubes were pulse spun, their contents were moved to a well of a 96-well GravityTRAP ultralow plate (InSphero) and plates were incubated at 37° C., 5% CO2 and 4% 02 for 3 weeks. Media was replaced every 3 to 4 days and cells were checked every week.
NAC rescued the proliferation of freshly isolated CTCs from a patient with breast cancer. […]

For experiment [4], the system named is BRx68-GFP+ cells. The experiment is described as follows: RNA-seq analysis of pools of growing single cell clones. Particulars: day 6; NAC 0.3 mM, P4D8 1 μM. As for the experimental part: RNA-seq analysis. BRx68-GFP+ cells were sorted, with 1 cell per well, using the MoFlo cell sorter (Beckman Coulter). Single cells were cultured in the presence of CTC media containing either 1 μM of P1C2, P4D8, or P1G7, or 0.3 mM of NAC or a combination of 1 μM of P1C2 and 0.3 mM of NAC. Cells cultured in media containing DMSO served as a control. All cells were cultured for either 6 days or 13 days at 37° C., 5% CO2 and 4% O2, and media was changed every 3 days. For both day 6 and day 13 groups, only clones with more than 3 cells at day 6 were harvested and pooled to a maximum of 50 cells. […] Libraries were sequenced on an Illumina NextSeq500 to obtain 75 bp-long single-end reads.
RNA-sequencing reads were trimmed for Nextera and Illumina adapter sequences using Trim Galore under default parameters. Trimmed reads were then mapped to the human genome build GRCh37 from Ensembl (ftp:/][/ftp.ensembl.org/pub/grch37/current/fasta/homo_sapiens/dna/Homo_sapiens.GRCh37.dna_sm.primary_as sembly.fa.gz) using STAR under optimized parameters for single-end sequenced data. Aligned reads were then counted via feature-Counts and piped into DESeq2 for normalization to sequencing depth and downstream analysis. […]

Entries after “also recorded” stand apart in the source; their conditions may differ.

With `CC(=O)N[C@@H](CS)C(=O)O` [NAC, N-acetyl-L-cysteine], the “growth of isolated CTCs compared to the control condition” value in experiment [1] is on record as “promote growth of small numbers of CTCs; also recorded: significantly increased”. Besides, the “total GSH level in NAC treated cells vs untreated control cells” value in experiment [2] (day 6) is 44.42±5.165; in experiment [2] (day 13), “not at day 13”. In addition, in experiment [3], the “proliferation of freshly isolated patient CTC clone after switch to NAC containing media” value is “rescued a CTC clone; also recorded: recovered and resumed proliferation”. For the same molecule, the “lipid metabolism pathway enrichment (IPA of differentially expressed genes) compared with control” value in experiment [4] is recorded as “enriched”.
